In publication PMC3634732, “Chemical Chaperones Exceed the Chaperone Effects of RIC-3 in Promoting Assembly of Functional α7 AChRs” (PLoS ONE, 2013):

How the values were obtained:
[1] = target: T1, α7 AChRs on the surface of cells in the α7/RIC-3 line (Homo sapiens, UniProt P36544); assay: Upregulation of surface 125I αBgt binding in the α7/RIC-3 cell line; assay type: cell-based; conditions: single chemical chaperone
T1 construct: expressed in transfected cells

[2] = test system: endogenous α7 AChRs in SH-SY5Y neuroblastoma cell line; assay: Surface 125I αBgt binding in SH-SY5Y cells treated with chemical chaperones; assay type: cell-based, human
[3] = test system: α7 AChRs in primary cultures of rat hippocampal neurons; assay: 125I αBgt binding to rat hippocampal neuron cultures; assay type: cell-based; conditions: for Increase of α7 AChR expression: VPA for 5 days
[4] = test system: α7/RIC-3 cell line; assay: Tolerability of chemical chaperones in α7/RIC-3 culture; assay type: cell-based, human; conditions: 6 mM, applied for longer periods than a few days
[5] = test system: Rat α7 AChRs; conditions: cited from earlier work

T1 sequence (P36544 23-502): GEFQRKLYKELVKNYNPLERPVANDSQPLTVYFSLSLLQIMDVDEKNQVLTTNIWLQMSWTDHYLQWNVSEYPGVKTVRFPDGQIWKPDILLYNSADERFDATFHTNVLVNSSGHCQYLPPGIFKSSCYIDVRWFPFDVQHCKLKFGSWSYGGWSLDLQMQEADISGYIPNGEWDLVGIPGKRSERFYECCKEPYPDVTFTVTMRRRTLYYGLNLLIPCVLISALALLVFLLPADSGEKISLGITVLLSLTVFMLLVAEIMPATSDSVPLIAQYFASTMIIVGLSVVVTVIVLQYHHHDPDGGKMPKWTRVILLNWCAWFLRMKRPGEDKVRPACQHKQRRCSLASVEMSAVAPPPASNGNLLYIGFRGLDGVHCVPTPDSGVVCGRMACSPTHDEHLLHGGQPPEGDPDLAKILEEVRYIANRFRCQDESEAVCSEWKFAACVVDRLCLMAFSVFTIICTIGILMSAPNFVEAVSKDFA

## CCCC(CCC)C(=O)O [VPA, valproic acid]
[1]
  Expression of α7 AChRs on the cell surface: greatly increased
[2]; 100 µM
  Increase of α7 expression: 7.3 fold
[3]; at 20 days in culture
  Increase of α7 AChR expression: 57%
[3]; cultures only 1 week old
  Increase of α7 AChR expression: 68%
[3]; long term treatment of primary cultures
  Increase of 125I αBgt binding: 60%
[3]; rat hippocampal neurons
  Concentration giving maximum upregulation: 0.5 mM

## O=C(O)CCCc1ccccc1 [PBA, 4-phenylbutyric acid]
[1]
  Expression of α7 AChRs on the cell surface: greatly increased
[2]; 24 hours, 10 µM
  Increase of 125I αBgt binding to the cell surface: 3 fold
[2]; 24 hours, 300 µM
  Increase of α7 AChRs in the cell surface vs control: 7.8 fold
[2]; concentration-dependent
  Increase in expression of α7 AChRs on the cell surface, maximum: up to 7.8 fold
[4]
  Toxicity in culture: toxic when applied for longer periods
[3]; rat hippocampal neurons (data not shown)
  Effect on 125I αBgt binding: ineffective

## CC(=O)OCC[N+](C)(C)C [ACh]
[5]
  EC50: 280 µM
